Assay results as given in the SangsterLogP compilation.

| SMILES | logP |
| --- | --- |
| Cc1cnccn1 | 0.23 |
| CC(=O)Nc1cccnc1 | 0.41 |
| Clc1ccc2nccnc2c1 | 2.1 |
| CCOc1ccc2nccnc2c1 | 2.22 |
| O=COc1ccccc1 | 1.26 |
| CC(=O)c1cccnc1 | 0.43 |
| CN(C)c1cccc2cccnc12 | 2.73 |
| Nc1cnc2ccccc2n1 | 1.5 |
| Cc1cccc(C#N)n1 | 0.84 |
| O=[N+]([O-])c1ccccn1 | 0.48 |
| Nc1ccc2nccnc2c1 | 0.9 |
| N#Cc1ccncc1 | 0.46 |
| Cc1cccc2c1ncc[n+]2[O-] | 1.2 |
| COC(=O)c1ccncc1 | 0.87 |
| O=[N+]([O-])c1ccnc2ccccc12 | 2.06 |
| Cc1cc(C#N)ccn1 | 0.81 |
| Cc1ccc2c(c1)N(O)C=CN2O | -0.35 |
| Cc1cccc2nccnc12 | 2.04 |
| CC(=O)c1ccccn1 | 0.83 |
| Cc1cnc2ccccc2n1 | 1.61 |
| CC(=O)c1ccnc2cc(Cl)ccc12 | 2.62 |
| CCOC(=O)c1cccc2cccnc12 | 1.83 |
| CC(=O)Nc1ccc2ncccc2c1 | 1.55 |
| Nc1cccc2nccnc12 | 1.29 |
| Clc1cnc2ccccc2n1 | 2.23 |
| Cc1cnc(C)cn1 | 0.63 |
| Clc1cccnc1 | 1.33 |

| SMILES | logP |
| --- | --- |
| N#Cc1cccnc1 | 0.36 |
| CS(=O)(=O)c1cnc2ccccc2n1 | 0.79 |
| CSc1cnc2ccccc2n1 | 2.79 |
| Clc1ccc2ccccc2n1 | 2.71 |
| Nc1cnc2ccccc2c1 | 1.63 |
| CCC(=O)Nc1ccnc2cc(Cl)ccc12 | 2.73 |
| COc1ccc2cccnc2c1 | 2.37 |
| COc1ccncc1 | 1 |
| N#Cc1ccnc2ccccc12 | 1.98 |
| CC(=O)Nc1cnc2ccccc2c1 | 1.92 |
| COc1cnc2ccccc2n1 | 2.31 |
| O=[N+]([O-])c1cnc2ccccc2c1 | 1.97 |
| CN(C)c1ccncc1 | 1.34 |
| Nc1ccnc2ccccc12 | 1.63 |
| CCOC(=O)Oc1cccc2cccnc12 | 1.73 |
| Nc1cnccn1 | -0.07 |
| N#Cc1ccc2nccnc2c1 | 1.01 |
| Clc1cccc2nccnc12 | 1.75 |
| Cc1ccc([N+](=O)[O-])cn1 | 0.99 |
| CC(=O)c1ccc2ccccc2n1 | 2.54 |
| O=S(=O)(c1ccccc1)c1ccc2ncccc2c1 | 2.57 |
| CN(C)c1ccc2cccnc2c1 | 2.71 |
| Brc1ccc2cccnc2c1 | 2.92 |
| N#Cc1ccccn1 | 0.5 |
| CC(=O)Nc1cccc2ncccc12 | 0.71 |
| O=[N+]([O-])c1cccnc1 | 0.6 |
| Cc1cc2nccnc2cc1C | 2.29 |
